Data set [1] has as its system Canidae. Particulars: oral, Dog Other, histopathology: nonneoplastic.
Data set [2] has as its system Oncorhynchus mykiss. Particulars: acute; duration: 96 hours; mortality.
In data set [3] the test system is Rattus norvegicus. Particulars: for LD50: acute, mortality.
Data set [4] deals with Anas platyrhynchos. Particulars: short-term; oral; feed; mortality.
The subject of data set [5] is Colinus virginianus. Particulars: acute, oral, mortality.

These results are taken from EPA's ToxValDB 9.5 (doi:10.2903/j.efsa.2009.203r).

In general, NOAEL refers to the highest tested level that showed no adverse finding.

SMILES strings stand for the structures. In brackets after ≈: the same amount, converted by molar mass. Some results are limits rather than exact numbers.

With `CN=C=S` [Methyl isothiocyanate], the no observed adverse effect level (NOAEL) in data set [1] (subchronic, duration: 90 days, gavage) came out at 0.4 mg/kg-day; in data set [3] (chronic, duration: 104 weeks, oral, drinking water, histopathology: nonneoplastic), 0.44 mg/kg-day; in data set [3] (reproduction developmental) it was 3 mg/kg-day. The molecule further showed an LC50 in data set [2] of 0.0531 µg/mL (≈ 0.726 µM). Further, the LD50 in data set [3] (oral) turned out to be 147 mg/kg-day.

On to `CNC(=S)[S-].[Na+]` [Metam-sodium], for which the values for the LC50 in data set [4] and in data set [5] (diet) were above 324 mg/kg-day and above 448 mg/kg-day, respectively. Further, the no-observed-adverse-effect level (NOAEL) was 0.1 mg/kg-day in data set [1] (chronic, duration: 1 years, capsule); 1.5 mg/kg-day in data set [3] (chronic, duration: 2 years, histopathology: nonneoplastic); 5 mg/kg-day in data set [3] (developmental, oral, gavage, development). Further, the LD50 amounted to 211 mg/kg-day in data set [5] and 896 mg/kg-day in data set [3] (oral).
